Assays:
melan-A cells [1] = experiment: Melanin generation inhibition by measuring OD405 in melan-A melanocytes; assay type: cell-based; conditions: for Melanin generation rate (%): culture for three days, vs non-treated group = 100
Method: Melan-A melanocytes were provided by AmorePacific Co., Korea. Melan-A is the cell line producing melanin, which has been usually used for the examination of a whitening agent. For cell culture, RPMI1640 medium supplemented with 10% FBS, 1% penicillin/streptomycin, and 200 nM TPA was prepared and sterilized. The cells were cultured in a 37° C., 10% CO2 incubator. When the melan-A cells were grown to fill 90% of 100 mm Petri-dish, the cells were sub-cultured.
The cells were recovered by using trypsine-EDTA. 1N NaOH containing 10% DMSO (dimethylsulfoxide) was added to the recovered cells, followed by reaction at 80° C. for 1 hour to let melanin dissolved fully. Then, OD405 was measured using ELISA reader (VERSAmax, Molecular device, USA). Melanin generation was quantified by the following mathematical formula 1 (Table 1, FIGS. 4 and 5).
Melanin generation rate (%)=OD of treated group/OD of non-treated group×100 [Mathematical Formula 1]

melan-A cells [2] = experiment: Cytotoxicity test (MTT, OD540) in Melan-A cells; assay type: cell-based; conditions: for Cell survival rate (%): Melan-A cells, MTT, three days, vs non-treated group = 100
Method: Upon completion of the culture, the medium was eliminated and 100 μl of MTT (3-(4,5-dimethythiazol-2-yl)-2,5-diphenyltetrazoliu,bromide) solution was added to each well of the plate, followed by reaction at 37° C. for 4 hours. Upon completion of the reaction, the solution was eliminated and 100 μl of DMSO was added to each well of the plate to lyse the stained cells. Then, OD540 was measured using ELISA reader. Cell survival rate was calculated by the following mathematical formula 2 (Table 2, FIGS. 4 and 5).
Cell survival rate (%)=(OD of treated group/OD of non-treated group)×100 [Mathematical Formula 2]

Row | Structure (SMILES) | Melanin generation rate (%) (melan-A cells [1]; 4.5 uM) | Melanin generation rate (%) (melan-A cells [1]; 9 uM) | Melanin generation (result in words) (melan-A cells [1]; compared with non-treated negative control (and positive control PTU for the compound)) | Cell survival rate (%) (melan-A cells [2]; 4.5 uM) | Cell survival rate (%) (melan-A cells [2]; 9 uM) | Cytotoxicity (result in words) (melan-A cells [2]; at a low concentration) | Melanin generation rate (%) (melan-A cells [1]; 50 uM) | Cell survival rate (%) (melan-A cells [2]; 50 uM)
1 | C/C=C\C#CC#C/C=C\C(=O)OC [(2Z,8Z)-matricaria acid methyl ester] | 36.37% | 26.92% | inhibited melanin generation at a lower concentration | 106.66% | 99.44% | no cytotoxicity was observed |  | 
2 | NC(=S)Nc1ccccc1 [Phenylthiourea, phenylthiourea, reference compound] |  |  |  |  |  |  | 36.19% | 100.19%

Source: patent US20090214454A1, “METHOD FOR SKIN WHITENING USING (2Z, 8Z) - MATRICARIA ACID METHYL ESTER” (INHA-INDUSTRY PARTNERSHIP INSTITUTE, priority 2008, published 2009)
